From ChEMBL document CHEMBL1201862, “PubChem BioAssay data set” (2004) come the findings set out here.

Common to all, as to assay: inhibition of tumour cell growth, NCI panel, 48 h
Experiment [1] deals with OVCAR-5.
The subject of experiment [2] is CCRF-CEM.
The subject of experiment [3] is MOLT-4.
In experiment [4] the test system is NCI-H23.
Experiment [5] deals with CAKI-1.
The subject of experiment [6] is HT-29.
For experiment [7], the system named is COLO 205.
Experiment [8] has as its system SK-MEL-28.
In experiment [9] the test system is U-251.
The subject of experiment [10] is NCI-H226.
Experiment [11] has as its system Malme-3M.
The test system of experiment [12] is EKVX.
The subject of experiment [13] is MDA-MB-435.
Experiment [14] deals with LOX IMVI.
The test system of experiment [15] is DU-145.
Experiment [16] relates to 786-0.
The subject of experiment [17] is A549.
In experiment [18] the test system is MDA-MB-231.
In experiment [19] the test system is NCI-H460.
The subject of experiment [20] is SR.

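Each compound was tested at five concentrations against cells in 96-well plates for 48 hours. GI50 is the concentration that inhibits growth by half.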 The source made the active and inactive calls. Rule as the data show it: active = GI50 up to about 1.1 µM and inactive = higher. A value given as a limit tells only on which side of the number the result lay.

Regarding `C=C(C)[C@H]1CC[C@@]23O[C@@H]2[C@@H](C[C@@]2(C)CC(=O)[C@H](CC(=O)C1)O2)OC(=O)[C@@]12CC[C@H](C(=C)C)CC(=O)C[C@H]4O[C@](C)(CC4=O)C[C@@H](OC3=O)[C@@H]1O2` [SINGARDIN], the GI50 in experiment [1] was > 100 µM (inactive); in [2] it was 91.8 µM (inactive); in [3] it was > 100 µM (inactive); in experiment [4], > 100 µM (inactive); in experiment [5], > 100 µM (inactive); in [6], > 100 µM (inactive). Further, the GI50 in [7], in experiment [8], in [9], in experiment [10], in [11] and in [12] was > 100 µM (inactive) each time. Moreover, the GI50 in experiment [13], in experiment [14], in experiment [15], in experiment [16], in experiment [17] and in experiment [18] was > 100 µM (inactive) each time.

`O=C1CC(c2ccc[nH]2)=NN1c1ccccc1`: the GI50 in experiment [1] is > 100 µM (inactive); in experiment [2], 88.5 µM (inactive); in experiment [3] it was 27.8 µM (inactive); in experiment [4] it was > 100 µM (inactive); in [5], > 100 µM (inactive); in experiment [6], > 100 µM (inactive). Also, the GI50 in experiment [7], in experiment [8], in experiment [9], in [10], in experiment [11] and in experiment [12] was > 100 µM (inactive) in each case. Besides, the GI50 in experiment [13], in experiment [14], in [15], in experiment [19], in experiment [16] and in [17] was > 100 µM (inactive) in each case. Further, in [18], the GI50 was > 100 µM (inactive).

As for `CC(C)C(C(=O)O)N1C(=O)c2ccccc2C1=O` (configuration not stated), the GI50 in experiment [1], in experiment [2], in experiment [3], in experiment [4], in experiment [5] and in [6] was > 100 µM (inactive) throughout. The GI50 in experiment [7], in [8], in experiment [9], in [10], in [11] and in experiment [12] was > 100 µM (inactive) each time. The GI50 in experiment [13], in experiment [14], in [15], in experiment [19], in [16] and in [17] was > 100 µM (inactive) in each case. Also, the GI50 in [18] was > 100 µM (inactive).

Take `CSC1C(=O)Nc2ccc3ccccc3c21` (configuration not stated): the GI50 is > 100 µM (inactive) in [1]; 21 µM (inactive) in [2]; 28.1 µM (inactive) in experiment [3]; > 100 µM (inactive) in experiment [4]; 19.1 µM (inactive) in experiment [5]; > 100 µM (inactive) in [6]. Besides, the GI50 in experiment [7] was 22.9 µM (inactive); in experiment [8], > 100 µM (inactive); in experiment [9] it was 17.8 µM (inactive); in experiment [10], 45.5 µM (inactive); in [11], 27.2 µM (inactive); in [12], 15.8 µM (inactive). In addition, the GI50 in experiment [13] was > 100 µM (inactive); in [14], 15.7 µM (inactive); in [15], > 100 µM (inactive); in [19] it was > 100 µM (inactive); in experiment [16], 16.1 µM (inactive); in experiment [17], > 100 µM (inactive). Further, the GI50 in experiment [18] is 23.2 µM (inactive).

For `COc1cc2c(c(OC)c1OC)-c1cccc(=O)cc1C(NC(C)=O)CC2` (configuration not stated), the GI50 was 7.5 µM (inactive) in experiment [1]; 0.0414 µM (active) in experiment [2]; 0.0553 µM (active) in experiment [3]; 0.0596 µM (active) in experiment [4]; 0.211 µM (active) in experiment [5]; 0.0721 µM (active) in [6]. Also, the GI50 was 0.054 µM (active) in [7]; 2.15 µM (inactive) in [8]; 0.0771 µM (active) in [9]; 0.845 µM (active) in experiment [10]; 0.0867 µM (active) in [11]; > 100 µM (inactive) in experiment [12]. Further, the GI50 in experiment [13] was < 0.01 µM (active); in experiment [14] it was 0.0449 µM (active); in experiment [15], 0.0624 µM (active); in experiment [19], 0.123 µM (active); in [16], 0.136 µM (active); in experiment [17] it was 0.317 µM (active). Also, in [18], the GI50 is 0.139 µM (active).

As for `COCC[N+](CCNC(=O)c1cccc2c(N)c3cccc(C)c3nc12)(CCOC)Cc1ccc([N+](=O)[O-])cc1`, the GI50 is 30.9 µM (inactive) in experiment [1]; 6.15 µM (inactive) in experiment [2]; 3.57 µM (inactive) in [3]; 29.8 µM (inactive) in experiment [4]; > 100 µM (inactive) in experiment [5]; 18.8 µM (inactive) in experiment [6]. Also, the GI50 is 16.1 µM (inactive) in experiment [7]; 13.8 µM (inactive) in [8]; 19.8 µM (inactive) in [9]; 24.2 µM (inactive) in experiment [12]; 30 µM (inactive) in [13]; 23.1 µM (inactive) in experiment [14]. Further, the GI50 in experiment [15] is 17 µM (inactive); in experiment [19] it was 6.47 µM (inactive); in experiment [16] it was 19.1 µM (inactive); in experiment [20], 2.99 µM (inactive); in experiment [17], 13.5 µM (inactive); in experiment [18] it was 28.1 µM (inactive).

Take `COc1cccc(/C=C/c2ccnc3ccccc23)c1OC`: the GI50 in [1] is > 10 µM (inactive); in [2] it was 4.6 µM (inactive); in experiment [3], 3.89 µM (inactive); in [4], 9.66 µM (inactive); in [5] it was > 10 µM (inactive); in experiment [6], 9.86 µM (inactive). Also, the GI50 in experiment [7] is > 10 µM (inactive); in [8], > 10 µM (inactive); in [9] it was > 10 µM (inactive); in experiment [10], > 10 µM (inactive); in [11] it was > 10 µM (inactive); in experiment [12] it was 9.66 µM (inactive). In addition, the GI50 in [13] was 2.86 µM (inactive); in experiment [14], 4.79 µM (inactive); in experiment [15] it was > 10 µM (inactive); in experiment [19] it was > 10 µM (inactive); in experiment [16], > 10 µM (inactive); in experiment [17], > 10 µM (inactive). Besides, in [18], the GI50 was > 10 µM (inactive).

For `Cc1cccc2c(NCCN(C)C)c3cccc(C(=O)NCCN(C)C)c3nc12`, the GI50 in [1] is 1.27 µM (inactive); in [2] it was 0.156 µM (active); in experiment [3], 0.0262 µM (active); in [4], 0.372 µM (active); in experiment [5], 0.187 µM (active); in [6] it was 0.0594 µM (active). Further, the GI50 in experiment [7] was 0.173 µM (active); in experiment [8], 0.199 µM (active); in experiment [9] it was 0.139 µM (active); in experiment [10], 0.728 µM (active); in experiment [11], 0.508 µM (active); in experiment [12], 0.383 µM (active). Moreover, the GI50 in [13] was 0.176 µM (active); in experiment [15], 0.471 µM (active); in experiment [19], < 0.0361 µM (active); in experiment [16] it was 0.0783 µM (active); in [20], 0.0281 µM (active); in experiment [17], 0.107 µM (active). Besides, in experiment [18], the GI50 was 0.0904 µM (active).

As for `O=C1CC(=O)NC(NN2C(=O)CSC2c2ccc(Cl)cc2)=N1` (configuration not stated), the GI50 in [1] is > 100 µM (inactive); in experiment [2], 25.7 µM (inactive); in experiment [3], 28 µM (inactive); in experiment [4], 25.5 µM (inactive); in experiment [5], > 100 µM (inactive); in experiment [6], 34.1 µM (inactive). Moreover, the GI50 in [7] was > 100 µM (inactive); in [8], > 100 µM (inactive); in experiment [9], 36.4 µM (inactive); in experiment [10], > 100 µM (inactive); in [11], 65.8 µM (inactive); in experiment [13], > 100 µM (inactive). Also, the GI50 is > 100 µM (inactive) in experiment [15]; 51.3 µM (inactive) in [19]; 37.2 µM (inactive) in [16]; 39.2 µM (inactive) in experiment [20]; > 100 µM (inactive) in [17]; 36.7 µM (inactive) in experiment [18].

For `Cn1c2ccccc2n2c3ncccc3c(=O)cc12`, the GI50 in experiment [1] is > 100 µM (inactive); in [3], 36.9 µM (inactive); in [4], 43 µM (inactive); in experiment [5], 36.2 µM (inactive); in experiment [6] it was 38.9 µM (inactive); in [7] it was 60.4 µM (inactive). Further, the GI50 in [8] was > 100 µM (inactive); in experiment [9], 40.4 µM (inactive); in experiment [10], 44.3 µM (inactive); in experiment [11], 45 µM (inactive); in [12], 16.3 µM (inactive); in experiment [13], 61.5 µM (inactive). Moreover, the GI50 in [14] was 29.9 µM (inactive); in experiment [15] it was 49.5 µM (inactive); in experiment [19], 33 µM (inactive); in experiment [16] it was 37.3 µM (inactive); in experiment [17], 20.2 µM (inactive); in experiment [18], 96.8 µM (inactive).

As to `COc1ccc(-c2nc(-c3cnccn3)n(C/C=C/c3ccccc3)n2)cc1`, the GI50 in [1], in experiment [2], in [3], in [4], in experiment [6] and in experiment [7] was > 100 µM (inactive) in each case. Moreover, the GI50 in [8] is 35.2 µM (inactive); in [9], 46.7 µM (inactive); in experiment [13] it was > 100 µM (inactive); in experiment [14], > 100 µM (inactive); in [15] it was > 100 µM (inactive); in experiment [19], > 100 µM (inactive). The GI50 was 17.3 µM (inactive) in [16], > 100 µM (inactive) in [20], 51.6 µM (inactive) in experiment [17] and 71.1 µM (inactive) in experiment [18].
